Measurements published in PMC9143078, “An Albumin-Binding PSMA Ligand with Higher Tumor Accumulation for PET Imaging of Prostate Cancer” (Pharmaceuticals, 2022).

What was measured:
PSMA = molecular target: T1, PSMA (Homo sapiens, UniProt Q04609); assay: Binding affinity to PSMA on 22Rv1 cells (dissociation constant); settings: 2 h at 37 °C, one-site total model
T1 construct: endogenous in cells; host or cells: 22Rv1 cells
Method: The dissociation constant of ^64Cu-PSMA-CM was performed on 22Rv1 cells by adding different concentrations of ^64Cu-PSMA-CM (0.185–74 kBq/mL, 400 μL/well, 4 well/group) to the 24-well plate (2 × 10^5 cells/well). After incubation for 2 h at 37 °C, the medium was removed, the cells were washed twice with cold PBS and then lysed by 0.5 mL NaOH. The radioactivity of NaOH solution was measured and the dissociation constant was calculated using the one-site total model in Graph Pad software (Graph Pad prism 5). Similarly, the dissociation constant of ^64Cu-PSMA-CM was determined with the same protocol.

PSMA (−) PC-3 cells = assay: Cell uptake in PC-3 cells; assay type: cell-based, human
Method: (§1) The 22Rv1 and PC-3 cell lines were plated on 24-well plates (2 × 10^5 cells/well). After incubating for 24 h, the medium was removed and washed with PBS (phosphate buffer saline, 0.01 M). Then, 500 μL medium with 74 KBq of ^64Cu-PSMA-CM was added to the well plates and co-incubated with cells at 37 °C for 10 min, 30 min, 60 min, and 120 min. The medium was then removed and the cells were washed twice with 1 mL of cold PBS. After that, cells were lysed with 1M NaOH, and then the NaOH solution was collected for analysis. For the blocking experiment, cells were co-incubated with ZJ-43 (1 µg/well), a PSMA inhibitor, for 120 min. Five samples of ^64Cu-PSMA-CM were taken out and were thought to be standard. The result was expressed as %IA/10^6 cells. For comparison, the cell uptake experiment of ^64Cu-PSMA-BCH in 22Rv1 cells was performed.

[1] = Partition coefficient (octanol/PBS); assay type: physicochemical; settings: octanol / PBS (0.1 M, pH 7.4)
Method: Amounts of 10 μL of ^64Cu-PSMA-CM in saline (0.37 MBq), 990 μL of phosphate-buffered saline (PBS, 0.1 M, pH 7.4), and 1mL of octanol were mixed in a tube. The mixture was vortexed for 3 min and centrifuged (3000 rpm × 5 min). Then, five samples (100 μL) from each phase were removed and the radioactivity was measured. The experiment was repeated three times. The partition coefficient value was calculated as below: P = (average of counts in octanol/average of counts in PBS), the value was expressed as log P ± SD.

[2] = In vitro stability in 5% human serum albumin; assay type: in vitro ADME; settings: 37.0 °C, more than 48 h incubation
Method: (§2) The in vitro stability of ^64Cu-PSMA-CM was tested in 5% human serum albumin (HSA) and saline at 37.0 °C.
(§3) ^64Cu-PSMA-CM was incubated in saline or 5% human serum albumin (HSA) at 37 °C and the radiochemical purity was determined by radio-HPLC at different points in time (1 h, 4 h, 12 h, 24 h, and 48 h). For the stability in 5% HSA, 15 μL of mixture was taken out and precipitated by ethanol, filtered, and the supernatant was analyzed.

[3] = system: mice bearing 22Rv1 tumors; assay: Biodistribution in 22Rv1 tumor model mice; assay type: in vivo; settings: for Biodistribution, Liver / Biodistribution, Spleen / Biodistribution, Blood / Biodistribution, Brain / Biodistribution, Heart / Biodistribution, Kidney / Biodistribution, LI (large intestine) / Biodistribution, Lung / Biodistribution, Muscle / Biodistribution, tumor: 22Rv1 male mice
Method: Twelve 22Rv1 tumor model mice were randomly divided into four groups and then ^64Cu-PSMA-CM (200 μL, 0.74 MBq/mouse) was injected via tail vein. […] Organs of interest including blood, heart, liver, spleen, lung, kidney, small intestine, large intestine, muscle, brain, and 22Rv1 tumor were collected. The organs were then weighed and measured for their radioactivity. Five samples of the 1% injection volume were taken out as a standard. The final uptake values of each organ were expressed as the percentage of injected dose per gram (%ID/g).

[4] = Pharmacokinetics in blood; assay type: in vivo, mice
Method: The pharmacokinetics profile of ^64Cu-PSMA-CM in blood circulation was tested by injecting 3.7 MBq of ^64Cu-PSMA-CM into Balb/c male mice (n = 4).
An amount of 3.7 MBq (250 μL) of ^64Cu-PSMA-CM was intravenously injected into Babl/c male mice (n = 4). Blood was collected from the ophthalmic artery at different time points, then the radioactivity of blood was weighed and measured by a γ-counter. An injection of 2.5 μL was taken out as standard. The results were expressed as the percentage of injected dose per gram (%ID/g).
A two-phase decay Equation (1) in Graph Pad software (Graph Pad prism 5) was used to serve as the two-compartment model which models biological process of the probe by fitting the ID%/g versus to time of ^64Cu-PMA-CM to describe blood pharmacokinetics. Ct = Ae^−αt + Be^−βt(1) where A and B are relevant constants, and α and β are rate constants which were used to calculate as ln(2)/α and ln(2)/β for the half-life of distribution phase and elimination phase, respectively.

[5] = system: mice bearing 22Rv1 tumors; assay: Micro-PET imaging in mice bearing 22Rv1 xenograft tumors; assay type: in vivo
Method: An amount of 200 μL of ^64Cu-PSMA-CM (9.32 MBq) was injected into mice bearing 22Rv1 xenograft tumors via tail vein. For blocking, the mice were co-injected with 50 μg of ZJ-43. Imaging was performed on Super Nova PET/CT (PINGSENG, Shanghai, China). The mice were anaesthetized with 3% (v/v) isoflurane, then fixed on the bed at 4 h, 8 h, 12 h, 24 h, and 48 h p.i. Micro-PET scans were conducted with continuous 1% (v/v) isoflurane for 15 min. The images of ^64Cu-PSMA-CM were obtained at different time points and SUV mean values of regions of interest (ROIs) over the heart, kidney, muscle, liver, and tumor were collected. The ratio of tumor-to-non-target organs was then calculated at different time points. To better assess its […] in vivo, a comparison with ^64Cu-PSMA-BCH (5.55 MBq/mouse) of micro-PET imaging was performed in mice bearing 22Rv1 tumor models at 4 h p.i., 12 h p.i., and 24 h p.i. The mean standardized uptake value (SUVmean) in each organ was calculated according to following Formula (2). SUV = Activity VOI (MBq/mL)/Injected dose (MBq) × Body weight (g)(2)

[6] = In vitro stability in saline; assay type: physicochemical; settings: 37.0 °C, more than 48 h incubation
Method: as §2, §3

PSMA (+) 22Rv1 cells = assay: Cell uptake in 22Rv1 cells; assay type: cell-based, human; settings: 120 min
Method: as §1

[7] = blood activity–time profile, in Figure 5
[8] = blood activity–time profile, in Figure 5, in h
[9] = blood, mice, 3.7 MBq i.v., two-phase decay fit

T1 sequence (Q04609 whole entry): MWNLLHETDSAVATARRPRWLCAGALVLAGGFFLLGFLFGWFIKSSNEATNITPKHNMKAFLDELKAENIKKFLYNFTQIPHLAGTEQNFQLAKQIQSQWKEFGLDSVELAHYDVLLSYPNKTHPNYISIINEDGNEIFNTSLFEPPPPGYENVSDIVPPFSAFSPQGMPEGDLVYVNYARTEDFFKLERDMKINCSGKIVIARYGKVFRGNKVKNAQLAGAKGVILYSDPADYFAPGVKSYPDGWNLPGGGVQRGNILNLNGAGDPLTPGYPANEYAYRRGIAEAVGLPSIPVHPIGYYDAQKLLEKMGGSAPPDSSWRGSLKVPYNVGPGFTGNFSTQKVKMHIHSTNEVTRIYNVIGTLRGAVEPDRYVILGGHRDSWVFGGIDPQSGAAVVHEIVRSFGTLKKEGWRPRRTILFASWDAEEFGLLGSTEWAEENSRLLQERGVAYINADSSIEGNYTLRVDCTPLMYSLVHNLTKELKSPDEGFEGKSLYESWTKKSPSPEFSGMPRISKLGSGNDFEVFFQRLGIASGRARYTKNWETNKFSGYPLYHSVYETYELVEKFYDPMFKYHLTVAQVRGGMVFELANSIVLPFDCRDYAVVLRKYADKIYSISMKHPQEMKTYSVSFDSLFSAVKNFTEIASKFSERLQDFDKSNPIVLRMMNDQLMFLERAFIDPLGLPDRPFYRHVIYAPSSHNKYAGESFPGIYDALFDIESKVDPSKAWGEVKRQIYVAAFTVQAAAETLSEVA

Kd (PSMA): 4.58 nM
log P [1]: −2.25 ± 0.05
radiochemical purity (RCP) after incubation in 5% HSA [2]: over 95%
highest uptake in 22Rv1 tumor ([3]; 22Rv1-beared male mice, 24 h p.i.): 14.29 ± 1.44 %ID/g
uptake in kidneys ([3]; 22Rv1-beared male mice, within 1 h): 95.84 ± 3.33 %ID/g
Biodistribution, Liver [3]: 8.50±1.06 ID%/g
Biodistribution, Spleen [3]: 2.65±0.55 ID%/g
Biodistribution, Blood ([3]; 1 h): 16.95 ± 3.05 ID%/g
Biodistribution, Brain ([3]; 1 h): 0.69±0.07 ID%/g
Biodistribution, Heart ([3]; 1 h): 4.49±0.47 ID%/g
Biodistribution, Kidney ([3]; 1 h): 95.84±3.33 ID%/g
Biodistribution, LI (large intestine) ([3]; 1 h): 3.75±0.11 ID%/g
Biodistribution, Liver ([3]; 1 h): 5.34 ± 1.13 ID%/g
Biodistribution, Lung ([3]; 1 h): 9.91±0.43 ID%/g
Biodistribution, Muscle ([3]; 1 h): 1.15±0.09 ID%/g
Biodistribution, Spleen ([3]; 1 h): 8.48±3.35 ID%/g
Biodistribution, tumor ([3]; 1 h): 8.09±1.66 ID%/g
Biodistribution, Blood ([3]; 6 h): 12.33±2.83 ID%/g
Biodistribution, Brain ([3]; 6 h): 0.47±0.05 ID%/g
Biodistribution, Heart ([3]; 6 h): 4.16±0.62 ID%/g
Biodistribution, Kidney ([3]; 6 h): 26.78±0.69 ID%/g
Biodistribution, LI (large intestine) ([3]; 6 h): 2.85±0.06 ID%/g
Biodistribution, Liver ([3]; 6 h): 5.24±0.59 ID%/g
Biodistribution, Lung ([3]; 6 h): 8.47±1.45 ID%/g
Biodistribution, Muscle ([3]; 6 h): 1.22±0.25 ID%/g
Biodistribution, Spleen ([3]; 6 h): 4.63±1.13 ID%/g
Biodistribution, tumor ([3]; 6 h): 8.51±1.99 ID%/g
Biodistribution, Blood ([3]; 12 h): 5.41±0.94 ID%/g
Biodistribution, Brain ([3]; 12 h): 0.44±0.06 ID%/g
Biodistribution, Heart ([3]; 12 h): 1.96±0.35 ID%/g
Biodistribution, Kidney ([3]; 12 h): 14.19±1.40 ID%/g
Biodistribution, LI (large intestine) ([3]; 12 h): 4.32±0.69 ID%/g
Biodistribution, Lung ([3]; 12 h): 6.28±0.72 ID%/g
Biodistribution, Muscle ([3]; 12 h): 1.24±0.77 ID%/g
Biodistribution, tumor ([3]; 12 h): 14.29±1.44 ID%/g
Biodistribution, Blood ([3]; 24 h): 2.83±0.41 ID%/g
Biodistribution, Heart ([3]; 24 h): 0.95±0.21 ID%/g
Biodistribution, Kidney ([3]; 24 h): 8.92±0.41 ID%/g
Biodistribution, LI (large intestine) ([3]; 24 h): 2.81±0.35 ID%/g
Biodistribution, Liver ([3]; 24 h): 6.14±0.23 ID%/g
Biodistribution, Lung ([3]; 24 h): 5.60±0.23 ID%/g
Biodistribution, Spleen ([3]; 24 h): 2.31±0.26 ID%/g
Biodistribution, tumor ([3]; 24 h): 10.57±1.23 ID%/g
KFast [4, 7]: 4.287
KSlow [4, 7]: 0.1765
Half Life (Fast) [4, 8]: 0.1617
Half Life (Slow) [4, 8]: 3.927
half-life of the distribution phase [4, 9]: 9.6 min
half-life of the elimination phase [4, 9]: 3.93 h
SUV mean value in 22Rv1 tumor (highest accumulation) ([5]; 24 h p.i.): 1.88 ± 0.04
uptake in tumors and kidneys when co-injected with excess ZJ-43 ([5]; ZJ-43 50 μg, p < 0.001): significantly decreased
radiochemical purity (RCP) after incubation in saline [6]: over 95%
Compound: O=C([O-])CN1CCN(CC(=O)[O-])CCN(CC(=O)NC(CNC(CC(=O)NC[C@H]2CC[C@H](C(=O)N[C@H](Cc3ccc4ccccc4c3)C(=O)NCCCC[C@H](NC(=O)N[C@@H](CCC(=O)O)C(=O)O)C(=O)O)CC2)C(=O)NCCOCCOCCNC(=O)CCN2C(=O)C=CC2=O)Cc2ccccc2)CC1.[64Cu+2] (stereo partly drawn) [^64Cu-PSMA-CM]
uptake in PSMA (−) PC-3 cells (PSMA (−) PC-3 cells; 120 min): 1.79 ± 0.20 IA%/10^6 cells
blocking of uptake in PC-3 cells by excess of ZJ-43 (PSMA (−) PC-3 cells; p > 0.05): cannot be blocked
highest uptake value in PSMA (+) 22Rv1 cells (PSMA (+) 22Rv1 cells): 5.45 ± 0.42 IA%/10^6 cells
uptake in 22Rv1 cells (PSMA (+) 22Rv1 cells): 5.45 ± 0.42 %IA/10^6 cells
uptake in 22Rv1 cells blocked by ZJ-43 (PSMA (+) 22Rv1 cells; co-incubated with ZJ-43 (1 µg/well)): 3.38 ± 0.04 IA%/10^6 cells
